Source: patent publication US9365583B2, “Substituted pyrazoles and uses thereof” (Genentech, Inc., priority 2013, dated 2016)

target: T1, N-terminally GST-tagged DLK (catalytic domain amino acid 1-520) (Homo sapiens, UniProt Q12852); assay: DLK TR-FRET inhibition assay; format: biochemical; conditions: 5 nM GST-DLK, 40 nM HIS-MKK4 K131M substrate, 30 μM ATP, 60 minutes at ambient temperature
T1 construct: N-terminally GST-tagged DLK (catalytic domain amino acid 1-520); purchased Carna Bioscience
T1 sequence (Q12852 1-520): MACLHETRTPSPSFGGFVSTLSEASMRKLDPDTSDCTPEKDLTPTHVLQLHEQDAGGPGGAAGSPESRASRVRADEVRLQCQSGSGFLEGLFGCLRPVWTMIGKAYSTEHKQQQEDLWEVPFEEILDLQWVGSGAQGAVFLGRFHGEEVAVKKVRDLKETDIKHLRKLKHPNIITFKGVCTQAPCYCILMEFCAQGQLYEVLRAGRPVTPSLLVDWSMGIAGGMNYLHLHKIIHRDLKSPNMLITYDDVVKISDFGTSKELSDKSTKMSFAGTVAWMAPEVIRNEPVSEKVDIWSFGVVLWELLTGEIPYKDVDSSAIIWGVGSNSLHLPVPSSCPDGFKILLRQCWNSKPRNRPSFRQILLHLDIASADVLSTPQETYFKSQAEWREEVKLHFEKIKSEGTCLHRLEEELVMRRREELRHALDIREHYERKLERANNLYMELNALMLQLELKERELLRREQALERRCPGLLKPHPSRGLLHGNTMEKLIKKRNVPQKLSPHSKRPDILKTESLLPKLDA
In short: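 5 nM GST-DLK (aa 1-520), 40 nM HIS-MKK4 K131M and 30 μM ATP reacted 60 min at ambient temperature in HEPES pH 7.5 buffer with 10 mM MgCl2, compound 1:3 serially diluted from 20 uM. TR-FRET detection of phospho-MKK4 used Eu-cryptate anti-phospho-MKK4 plus D2 anti-HIS, read after 3 h (665/615 nm).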

SMILES | Ki [nM]
CC(C)n1nc(-c2cnc(N)c(OC(F)F)c2)cc1[C@H]1[C@@H]2C[C@@H](NCC(F)F)C[C@@H]21 [compound 255, 5-(5-((1R,3s,5S,6r)-3-((2,2-difluoroethyl)amino)bicyclo[3.1.0]hexan-6-yl)-1-isopropyl-1H-pyrazol-3-yl)-3-(difluoromethoxy) pyridin-2-amine] | 1.5
CC(C)n1nc(-c2cnc(N)c(OC(F)F)c2)cc1[C@H]1[C@@H]2C[C@H](OCC(C)(C)O)C[C@@H]21 [compound 168, 1-(((1R,3r,5S,6r)-6-(3-(6-ammo-5-(difluoromethoxy)pyridin-3-yl)-1-isopropyl-1H-pyrazol-5-yl)bicyclo[3.1.0]hexan-3-yl)oxy)-2-methylpropan-2-ol] | 2.7
CC(C)n1nc(-c2cnc(N)c(OC(F)(F)F)c2)cc1[C@H]1[C@@H]2C[C@H](N3C[C@@H]4C[C@H]3CN4C)C[C@@H]21 [compound 201, 5-(1-isopropyl-5-((1R,3r,5S,6S)-3-((1S,4S)-5-methyl-2,5-diazabicyclo [2.2.1]heptan-2-yl)bicyclo [3.1.0]hexan-6-yl)-1H-pyrazol-3-yl)-3-(trifluoromethoxy) pyridin-2-amine] | 1.3
CC(C)n1nc(-c2cnc(N)c(OC(F)(F)F)c2)cc1[C@H]1[C@@H]2C[C@H](N3CCO[C@@H](C)C3)C[C@@H]21 [compound 109, 5-(1-isopropyl-5-((1R,3r,5S,6S)-3-((S)-2-methylmorpholino)bicyclo[3.1.0]hexan-6-yl)-1H-pyrazol-3-yl)-3-(trifluoromethoxy) pyridin-2-amine] | 1.59
CC(C)n1nc(-c2cnc(N)c(C(F)(F)F)c2)cc1[C@H]1[C@@H]2CC(C#N)C[C@@H]21 (single isomer, unassigned) [compound 191] | 7.8
CC(C)n1nc(-c2cnc(N)c(OC(F)(F)F)c2)cc1[C@H]1[C@@H]2C[C@H](N3C[C@H]4C[C@@H]3CO4)C[C@@H]21 [compound 56, 5-(5-((1R,3r,5S,6R)-3-((1R,4R)-2-oxa-5-azabicyclo[2.2.1]heptan-5-yl)bicyclo[3.1.0]hexan-6-yl)-1-isopropyl-1H-pyrazol-3-yl)-3-(trifluoromethoxy)pyridin-2-amine] | 4.81
CC(C)n1nc(-c2cnc(N)c(C(F)(F)F)c2)cc1[C@H]1[C@@H]2C[C@@H](N3C[C@@H]4C[C@H]3CO4)C[C@@H]21 [compound 167, 5-(5-((1R,3s,5S,6S)-3-((1S,4S)-2-oxa-5-azabicyclo[2.2.1]heptan-5-yl)bicyclo[3.1.0]hexan-6-yl)-1-isopropyl-1H-pyrazol-3-yl)-3-(trifluoromethyl)pyridin-2-amine] | 1.4
CC(C)n1nc(-c2cnc(N)c(C(F)(F)F)c2)cc1[C@H]1[C@@H]2C[C@H](N3CCN(C4COC4)CC3)C[C@@H]21 [compound 116, 5-(1-isopropyl-5-((1R,3r,5S,6r)-3-(4-(oxetan-3-yl)piperazin-1-yl)bicyclo[3.1.0]hexan-6-yl)-1H-pyrazol-3-yl)-3-(trifluoromethyl) pyridin-2-amine] | 7.79
CC(C)n1nc(-c2cnc(N)c(C(F)(F)F)c2)cc1[C@H]1[C@@H]2C[C@@]3(CCN3CC(F)F)C[C@@H]21 [compound 148, 5-(5-((1′R,2r,5′S,6′r)-1-(2,2-difluoro-ethyl)spiro[azetidine-2,3′-bicyclo[3.1.0]hexan]-6-yl)-1-isopropyl-1H-pyrazol-3-yl)-3-(trifluoro-methyl)pyridin-2-amine] | 8.9
CC(C)n1nc(-c2cnc(N)c(OC(F)F)c2)cc1[C@H]1[C@@H]2CC(=O)C[C@@H]21 [compound 85, (1R,5S,6r)-6-(3-(6-amino-5-(difluoro-methoxy)pyridin-3-yl)-1-isopropyl-1H-pyrazol-5-yl)bicyclo [3.1.0]hexan-3-one] | 47.8
CC(C)n1nc(-c2cnc(N)c(C(F)(F)F)c2)cc1[C@H]1[C@@H]2C[C@@H](N3CCS(=O)(=O)CC3)C[C@@H]21 [compound 9, 4-((1R,3s,5S,6r)-6-(3-(6-amino-5-(trifluoromethyl)pyridin-3-yl)-1-isopropyl-1H-pyrazol-5-yl)bicyclo[3.1.0]hexan-3-yl)thio-morpholine 1,1-dioxide] | 4
CC(C)n1nc(-c2cnc(N)c(C(F)(F)F)c2)cc1[C@H]1[C@@H]2CC(N3CC4COCC4C3)C[C@@H]21 (single isomer, unassigned) [compound 270] | 2.8

Results, then the compound that gave them:

Ki [nM] | SMILES
221 | Nc1ncc(-c2cc([C@H]3[C@@H]4C[C@@H](N5CCOCC5)C[C@@H]43)nn2CC2CC2)cc1OC(F)F [compound 268, 5-(1-(cyclopropylmethyl)-3-((1R,3s,5S,6r)-3-morpholinobicyclo [3.1.0]hexan-6-yl)-1H-pyrazol-5-yl)-3-(difluoromethoxy) pyridin-2-amine]
3.34 | CC(C)n1nc(-c2cnc(N)c(OC(F)F)c2)cc1[C@H]1[C@@H]2C[C@@H](N3CCOCC3)C[C@@H]21 [compound 137, 3-(difluoromethoxy)-5-(1-isopropyl-5-((1R,3s,5S,6r)-3-morpholino-bicyclo[3.1.0]hexan-6-yl)-1 H-pyrazol-3-yl)pyridin-2-amine]
1.68 | CC(C)n1nc(-c2cnc(N)c(OC(F)F)c2)cc1[C@H]1[C@@H]2C[C@@H](N3CCOCC3)C[C@@H]21 [compound 84, 3-(difluoromethoxy)-5-(1-isopropyl-5-((1R,3s,5S,6r)-3-morpholino-bicyclo[3.1.0]hexan-6-yl)-1H-pyrazol-3-yl)pyridin-2-amine]
1.8 | CC(C)n1nc(-c2cnc(N)c(OC(F)F)c2)cc1[C@H]1[C@@H]2C[C@@H](N3CCN(C)CC3)C[C@@H]21 [compound 199, 3-(difluoromethoxy)-5-(1-isopropyl-5-((1R,3s,5S,6r)-3-(4-methyl-piperazin-1-yl)bicyclo[3.1.0]hexan-6-yl)-1H-pyrazol-3-yl) pyridin-2-amine]
2.26 | CC(C)n1nc(-c2cnc(N)c(OC(F)(F)F)c2)cc1[C@H]1[C@@H]2C[C@@H](N3CCN(C)CC3)C[C@@H]21 [compound 66, 5-(1-isopropyl-5-((1R,3s,5S,6r)-3-(4-methylpiperazin-1-yl)bicyclo [3.1.0]hexan-6-yl)-1H-pyrazol-3-yl)-3-(trifluoromethoxy) pyridin-2-amine]
4.23 | CC(C)n1nc(-c2cnc(N)c(OC(F)(F)F)c2)cc1[C@H]1[C@@H]2C[C@@H](N3CCO[C@@H](C)C3)C[C@@H]21 [compound 113, 5-(1-isopropyl-5-((1R,3s,5S,6S)-3-((S)-2-methylmorpholino)bicyclo[3.1.0]hexan-6-yl)-1H-pyrazol-3-yl)-3-(trifluoromethoxy) pyridin-2-amine]
0.52 | CC(C)n1nc(-c2cnc(N)c(OC(F)F)c2)cc1[C@H]1[C@@H]2C[C@H](N3CCO[C@@H](C)C3)C[C@@H]21 [compound 78, 3-(difluoromethoxy)-5-(1-isopropyl-5-((1R,3r,5S,6S)-3-((S)-2-methylmorpholino)bicyclo[3.1.0]hexan-6-yl)-1H-pyrazol-3-yl) pyridin-2-amine]
6.4 | CO[C@@H]1C[C@@H]2[C@H](C1)[C@H]2c1cc(-c2cnc(N)c(OC(F)F)c2)nn1C(C)C [compound 195, 3-(difluoromethoxy)-5-(1-isopropyl-5-((1R,3s,5S,6r)-3-methoxy-bicyclo[3.1.0]hexan-6-yl)-1H-pyrazol-3-yl)pyridin-2-amine]
0.9 | CC(C)n1nc(-c2cnc(N)c(OC(F)F)c2)cc1[C@H]1[C@@H]2C[C@H](N3C4COCC3C4)C[C@@H]21 [compound 153, 5-(5-((1R,3r,5S,6r)-3-(3-oxa-6-azabicyclo[3.1.1]heptan-6-yl)bicyclo[3.1.0]hexan-6-yl)-1-isopropyl-1H-pyrazol-3-yl)-3-(difluoro-methoxy)pyridin-2-amine]
5.5 | CC(C)n1nc(-c2cnc(N)c(OC(F)F)c2)cc1C1[C@H]2CC(N3CCOCC(F)C3)C[C@@H]12 (single isomer, unassigned) [compound 175]
2.9 | CC(C)n1nc(-c2cnc(N)c(OC(F)F)c2)cc1[C@H]1[C@@H]2C[C@@H](N3CCCN(C)CC3)C[C@@H]21 [compound 205, 3-(difluoromethoxy)-5-(1-isopropyl-5-((1R,3s,5S,6r)-3-(4-methyl-1,4-diazepan-1-yl)bicyclo [3.1.0]hexan-6-yl)-1H-pyrazol-3-yl)pyridin-2-amine]
2.1 | CC(C)n1nc(-c2cnc(N)c(OC(F)F)c2)cc1[C@H]1[C@@H]2C[C@H](N3CCN(C)CC3)C[C@@H]21 [compound 198, 3-(difluoromethoxy)-5-(1-isopropyl-5-((1R,3r,5S,6r)-3-(4-methyl-piperazin-1-yl)bicyclo[3.1.0]hexan-6-yl)-1H-pyrazol-3-yl) pyridin-2-amine]
1.4 | CC(C)n1nc(-c2cnc(N)c(OC(F)F)c2)cc1[C@H]1[C@@H]2C[C@@H](N3CCN4CCCC4C3)C[C@@H]21 (stereo partly drawn) [compound 88, 3-(difluoromethoxy)-5-(5-((1R,3s,5S,6r)-3-(hexahydropyrrolo [1,2-a]pyrazin-2(1H)-yl)bicyclo [3.1.0]hexan-6-yl)-1-isopropyl-1H-pyrazol-3-yl)pyridin-2-amine]
